From ChEMBL document CHEMBL3885881, “DrugMatrix”

Organism: Rattus norvegicus
Test: DrugMatrix - Regimen: Daily Repeat
Format: toxicity, organism-based, Sprague-Dawley
Set-up: regimen Daily Repeat, gender Male, age 6-8 weeks
Conditions: in vivo, po, route oral GAVAGE, vehicle 100 % WATER; for BASOPHIL / EOSINOPHIL / ERYTHROCYTE COUNT / HEMATOCRIT / HEMOGLOBIN / LEUKOCYTE COUNT / LYMPHOCYTE / MEAN CORPUSCULAR HEMOGLOBIN / MEAN CORPUSCULAR HEMOGLOBIN CONCENTRATION / MEAN CORPUSCULAR VOLUME / MONOCYTE / NEUTROPHIL / PLATELET COUNT: tissue Blood; for ALANINE AMINOTRANSFERASE / ALBUMIN / ALKALINE PHOSPHATASE / ASPARTATE AMINOTRANSFERASE / BLOOD UREA NITROGEN / CHLORIDE / CHOLESTEROL / CREATINE PHOSPHOKINASE / CREATININE / GLUCOSE / PHOSPHORUS / POTASSIUM / SODIUM / TOTAL BILIRUBIN / TOTAL PROTEIN: tissue Plasma
[1] = 0 mg/kg, 72 h, dose level Control, time 3 day
[2] = 0 mg/kg, 120 h, dose level Control, time 5 day
[3] = 53.5 mg/kg, 72 h, dose level Low, time 3 day

## CN1C(=O)OC(C)(C)C1=O [TRIMETHADIONE]
[1]
  BASOPHIL: 0%
  EOSINOPHIL: 0.5%
  ERYTHROCYTE COUNT: 5.8 x10E6/uL
  HEMATOCRIT: 35.07%
  HEMOGLOBIN: 14.12 G/DL
  LEUKOCYTE COUNT: 13.7 x10E3/uL
  LYMPHOCYTE: 82.33%
  MEAN CORPUSCULAR HEMOGLOBIN: 24.38 pg
  MEAN CORPUSCULAR HEMOGLOBIN CONCENTRATION: 40.28 G/DL
  MEAN CORPUSCULAR VOLUME: 60.52 fL
  MONOCYTE: 2.67%
  NEUTROPHIL: 14.5%
  PLATELET COUNT: 911.5 x10E3/uL
  ALANINE AMINOTRANSFERASE: 36.83 u/L
  ALBUMIN: 3.75 G/DL
  ALKALINE PHOSPHATASE: 399.83 u/L
  ASPARTATE AMINOTRANSFERASE: 66 u/L
  BLOOD UREA NITROGEN: 14.67 mg/dL
  CHLORIDE: 101.67 MEQ/L
  CHOLESTEROL: 66.33 mg/dL
  CREATINE PHOSPHOKINASE: 139.5 u/L
  CREATININE: 0.92 mg/dL
  GLUCOSE: 175 mg/dL
  PHOSPHORUS: 11.42 mg/dL
  POTASSIUM: 7.03 MEQ/L
  SODIUM: 148.5 MEQ/L
  TOTAL BILIRUBIN: 1.13 mg/dL
  TOTAL PROTEIN: 6.87 G/DL
[2]
  BASOPHIL: 0%
  EOSINOPHIL: 0.2%
  ERYTHROCYTE COUNT: 6.02 x10E6/uL
  HEMATOCRIT: 36.48%
  HEMOGLOBIN: 14.38 G/DL
  LEUKOCYTE COUNT: 12.34 x10E3/uL
  LYMPHOCYTE: 83%
  MEAN CORPUSCULAR HEMOGLOBIN: 23.92 pg
  MEAN CORPUSCULAR HEMOGLOBIN CONCENTRATION: 39.44 G/DL
  MEAN CORPUSCULAR VOLUME: 60.66 fL
  MONOCYTE: 3%
  NEUTROPHIL: 13.8%
  PLATELET COUNT: 1190.6 x10E3/uL
  ALANINE AMINOTRANSFERASE: 43 u/L
  ALBUMIN: 3.73 G/DL
  ALKALINE PHOSPHATASE: 393 u/L
  ASPARTATE AMINOTRANSFERASE: 62.33 u/L
  BLOOD UREA NITROGEN: 16.33 mg/dL
  CHLORIDE: 101.67 MEQ/L
  CHOLESTEROL: 65.5 mg/dL
  CREATINE PHOSPHOKINASE: 130.67 u/L
  CREATININE: 0.58 mg/dL
  GLUCOSE: 180.67 mg/dL
  PHOSPHORUS: 11.28 mg/dL
  POTASSIUM: 7.05 MEQ/L
  SODIUM: 148.17 MEQ/L
  TOTAL BILIRUBIN: 0.72 mg/dL
  TOTAL PROTEIN: 6.83 G/DL
[3]
  BASOPHIL: 0%
  EOSINOPHIL: 0.5%
  ERYTHROCYTE COUNT: 6.33 x10E6/uL
  HEMATOCRIT: 38.05%
  HEMOGLOBIN: 15.05 G/DL
  LEUKOCYTE COUNT: 12.85 x10E3/uL
  LYMPHOCYTE: 83.5%
  MEAN CORPUSCULAR HEMOGLOBIN: 23.8 pg
  MEAN CORPUSCULAR HEMOGLOBIN CONCENTRATION: 39.55 G/DL
  MEAN CORPUSCULAR VOLUME: 60.15 fL
  MONOCYTE: 3.5%
  NEUTROPHIL: 12.5%
  PLATELET COUNT: 1304.5 x10E3/uL
  ALANINE AMINOTRANSFERASE: 36.5 u/L
  ALBUMIN: 3.7 G/DL
  ALKALINE PHOSPHATASE: 313 u/L
  ASPARTATE AMINOTRANSFERASE: 61.5 u/L
  BLOOD UREA NITROGEN: 12 mg/dL
  CHLORIDE: 101 MEQ/L
  CHOLESTEROL: 59 mg/dL
  CREATINE PHOSPHOKINASE: 136 u/L
  CREATININE: 0.55 mg/dL
  GLUCOSE: 210.5 mg/dL
  PHOSPHORUS: 13 mg/dL
  POTASSIUM: 6.85 MEQ/L
  SODIUM: 151 MEQ/L
  TOTAL BILIRUBIN: 0.35 mg/dL
